pIC50: −log10 of the molar value.
Target: T1, Signal transducer and activator of transcription 1-alpha/beta (Homo sapiens, UniProt P42224)
T1 sequence (P42224 whole entry): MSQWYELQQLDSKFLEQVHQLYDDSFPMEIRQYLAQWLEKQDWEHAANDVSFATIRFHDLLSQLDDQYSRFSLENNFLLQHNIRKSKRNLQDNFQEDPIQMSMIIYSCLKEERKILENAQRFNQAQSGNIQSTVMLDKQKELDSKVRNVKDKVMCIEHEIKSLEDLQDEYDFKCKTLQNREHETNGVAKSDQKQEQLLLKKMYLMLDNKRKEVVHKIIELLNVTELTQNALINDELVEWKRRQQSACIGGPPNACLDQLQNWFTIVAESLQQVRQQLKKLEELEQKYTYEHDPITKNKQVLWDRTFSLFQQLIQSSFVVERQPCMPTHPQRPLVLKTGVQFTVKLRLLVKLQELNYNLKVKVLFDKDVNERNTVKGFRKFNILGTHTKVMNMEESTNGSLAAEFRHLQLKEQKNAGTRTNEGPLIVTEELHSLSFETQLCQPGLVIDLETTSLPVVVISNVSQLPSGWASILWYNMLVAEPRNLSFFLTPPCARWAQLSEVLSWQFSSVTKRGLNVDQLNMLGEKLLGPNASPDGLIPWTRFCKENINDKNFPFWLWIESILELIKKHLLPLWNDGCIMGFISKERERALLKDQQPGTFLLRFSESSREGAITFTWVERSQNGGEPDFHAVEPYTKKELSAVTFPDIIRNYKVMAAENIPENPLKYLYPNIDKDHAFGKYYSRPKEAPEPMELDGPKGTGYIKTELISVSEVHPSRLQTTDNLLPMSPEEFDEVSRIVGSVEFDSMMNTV
Assay: PubChem AID 1396

Structure (SMILES): CCN1C(=O)C(=CNNC(=O)c2ccncc2)C(=O)N(CC)C1=S [SMR000218837]
- pIC50: 5.35

Reference: BindingDB's records for doi:10.7270/Q2WS8RN8 (The Scripps Research Institute Molecular Screening Center, 2008)
